Laboratory results published in ChEMBL document CHEMBL5380792, “Discovery of CZS-241: A Potent, Selective, and Orally Available Polo-Like Kinase 4 Inhibitor for the Treatment of Chronic Myeloid Leukemia” (J Med Chem, 2023).

Columns and labels:
in vitro [1] = conditions: human, liver microsomes
in vitro [2] = conditions: human, liver microsomes; remark: listed apart in the source
in vitro [3] = conditions: human, plasma
in vitro [4] = conditions: human, plasma; remark: listed apart in the source
in vitro [5] = conditions: human, plasma; remark: listed apart in the source
in vitro [6] = conditions: human, plasma; remark: listed apart in the source
in vitro [7] = conditions: human, liver microsomes; remark: listed apart in the source
in vitro [8] = conditions: human, plasma; remark: listed apart in the source

## COc1c(Nc2cc(C)[nH]n2)nc(Sc2ccc(S(=O)(=O)Cc3cccc([N+](=O)[O-])c3F)cc2F)nc1N1CCOCC1
In vitro [1]
  remaining at 1 h: 1.7%
In vitro [2]
  remaining at 1 h: 98.6%
In vitro [3]
  remaining at 10 min: 101%
In vitro [4]
  remaining at 0.5 h: 95%
In vitro [5]
  remaining at 1 h: 95.4%
In vitro [6]
  remaining at 2 h: 97.3%

## O=C(O)Cc1ccccc1Nc1c(Cl)cccc1Cl [DICLOFENAC]
In vitro [7]
  half-life: 3.2 min

## CC(C)[N+](C)(CCOC(=O)C1c2ccccc2Oc2ccccc21)C(C)C.[Br-] [PROPANTHELINE BROMIDE]
In vitro [8]
  half-life: 19.8 min

## C[C@]12CC[C@H]3[C@@H](CCC4=CC(=O)CC[C@@]43C)[C@@H]1CC[C@@H]2O [TESTOSTERONE]
In vitro [7]
  half-life: 11.4 min
